Measured values from ChEMBL document CHEMBL5137057, “Small Carbohydrate Derivatives as Potent Antibiofilm Agents” (J Med Chem, 2022).
≈ marks a conversion by molar mass, not a printed value.

What was measured:
[1] = molecular target: Type 1 fimbrin D-mannose specific adhesin (Escherichia coli K-12) (UniProt P08191); assay: Relative inhibitory potency, ratio of methyl alpha-D-mannose Kd to compound Kd for binding affinity to Escherichia coli FimH by ELISA assay; details: K12
[2] = molecular target: T1, PA-I galactophilic lectin (Pseudomonas aeruginosa (strain ATCC 15692 / PAO1 / 1C / PRS 101 / LMG12228), UniProt Q05097); assay: Binding affinity to Pseudomonas aeruginosa LecA assessed as dissociation constant by isothermal titration calorimetry
T1 sequence (Q05097 whole entry): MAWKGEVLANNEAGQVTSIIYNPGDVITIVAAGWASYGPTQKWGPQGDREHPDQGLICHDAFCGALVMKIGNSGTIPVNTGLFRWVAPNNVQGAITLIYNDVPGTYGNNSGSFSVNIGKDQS

[3] = molecular target: T1, PA-I galactophilic lectin; assay: Inhibition of Pseudomonas aeruginosa LecA incubated for 4 to 6 hrs by fluorescence polarization based competitive binding analysis
[4] = test system: Staphylococcus aureus; assay: Antibiofilm activity against methicillin-sensitive Staphylococcus aureus UAMS-1 measured after 22 hrs by crystal violet staining based assay; assay type: functional; details: for MIC50: Staphylococcus aureus, UAMS-1
[5] = test system: Mycolicibacterium smegmatis; assay: Antimicrobial activity against Mycobacterium smegmatis MC2 155 assessed as planktonic growth inhibition measured after 48 hrs by microplate reader analysis; assay type: functional
[6] = test system: Mycolicibacterium smegmatis; assay: Antibiofilm activity against Mycobacterium smegmatis MC2 155 assessed as […] measured after 48 hrs by crystal violet staining based analysis; assay type: functional
[7] = molecular target: Type 1 fimbrin D-mannose specific adhesin (Escherichia coli K-12) (UniProt P08191); assay: Inhibition of Escherichia coli UTI89 FimH by hemagglutination assay
[8] = molecular target: Type 1 fimbrin D-mannose specific adhesin (Escherichia coli K-12) (UniProt P08191); assay: Relative inhibitory potency, ratio of methyl alpha-D-mannose Kd to compound Kd for binding affinity to C-terminal His-tagged truncated Escherichia coli FimH by SPR analysis; details: K12
[9] = test system: Staphylococcus aureus; assay: Potentiation of vancomycin-induced antibacterial activity against methicillin resistant Staphylococcus aureus Mu50 in presence of vancomycin; assay type: functional, organism-based
[10] = test system: Pseudomonas aeruginosa; assay: Antibiofilm activity against Pseudomonas aeruginosa PA14 measured after 48 hrs by confocal laser scanning microscope analysis relative to control; assay type: functional
[11] = test system: Pseudomonas aeruginosa; assay: Antibacterial activity against Pseudomonas aeruginosa PAO1 NCTC 10332 assessed as inhibition of biofilm formation incubated for 24 hrs by crystal violet staining based analysis; assay type: functional, organism-based; details: PAO1 NCTC 10332, 24 h
[12] = molecular target: T2, Fucose-binding lectin PA-IIL (Pseudomonas aeruginosa (strain ATCC 15692 / DSM 22644 / CIP 104116 / JCM14847 / LMG 12228 / 1C / PRS 101 / PAO1), UniProt Q9HYN5); assay: Binding affinity to Pseudomonas aeruginosa PAO1 LecB assessed as dissociation constant by isothermal titration calorimetry
Target sequence in this assay (Q9HYN5 whole entry): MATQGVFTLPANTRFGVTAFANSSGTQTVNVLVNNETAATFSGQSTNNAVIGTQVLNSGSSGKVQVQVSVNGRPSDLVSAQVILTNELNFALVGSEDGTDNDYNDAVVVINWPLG

[13] = molecular target: T2, Fucose-binding lectin PA-IIL; assay: Inhibition of Pseudomonas aeruginosa PA14 LecB incubated for 22 to 24 hrs by fluorescence polarization based competitive binding analysis
Target sequence in this assay (Q9HYN5 1-115): as the sequence (Q9HYN5 whole entry) above

[14] = molecular target: T2, Fucose-binding lectin PA-IIL; assay: Binding affinity to Pseudomonas aeruginosa PA14 LecB assessed as dissociation constant by isothermal titration calorimetry
Target sequence in this assay (Q9HYN5 1-115): as the sequence (Q9HYN5 whole entry) above

[15] = test system: Staphylococcus aureus; assay: Antibacterial activity against Staphylococcus aureus ATCC 25923 assessed as inhibition of biofilm formation incubated for 24 hrs by crystal violet staining based analysis relative to control; assay type: functional; design: scale not given: the % may be the effect or the level left
[16] = test system: Serratia marcescens; assay: Antibacterial activity against Serratia marcescens ATCC 27117 assessed as inhibition of biofilm formation at 50 ug/ml incubated for 24 hrs by crystal violet staining based analysis relative to control; assay type: functional; design: scale not given: the % may be the effect or the level left; details: dose 50 µg/ml
[17] = test system: Staphylococcus aureus; assay: Potentiation of vancomycin-induced antibacterial activity against methicillin resistant Staphylococcus aureus Mu50 pretreated with compound followed by vancomycin addition; assay type: functional, organism-based
[18] = test system: Streptococcus agalactiae; assay: Antibiofilm activity against Streptococcus agalactiae GRS90; assay type: functional; details: dose 128 µg/ml; time 22 hrs
[19] = test system: Streptococcus agalactiae; assay: Antibiofilm activity against Streptococcus agalactiae GB2; assay type: functional
[20] = test system: Escherichia coli; assay: Antibiofilm activity against Escherichia coli UTI89; assay type: functional, organism-based

Chain of Type 1 fimbrin D-mannose specific adhesin (Escherichia coli K-12) (P08191 whole entry, the tested form may be a part): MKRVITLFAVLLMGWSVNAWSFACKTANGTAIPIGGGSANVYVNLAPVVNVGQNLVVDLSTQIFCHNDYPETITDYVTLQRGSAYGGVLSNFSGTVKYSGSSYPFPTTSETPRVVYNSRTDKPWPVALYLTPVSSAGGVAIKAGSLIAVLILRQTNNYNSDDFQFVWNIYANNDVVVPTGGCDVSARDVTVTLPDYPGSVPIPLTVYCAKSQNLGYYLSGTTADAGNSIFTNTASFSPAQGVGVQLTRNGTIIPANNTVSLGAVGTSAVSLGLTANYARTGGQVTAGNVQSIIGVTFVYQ

Compound: CCOc1c(Nc2ccc(O[C@H]3O[C@H](CO)[C@@H](O)[C@H](O)[C@@H]3O)c(Cl)c2)c(=O)c1=O
- Ratio [1]: 6900

Compound: COc1ccc(/C=N/NC(=O)c2ccc(O[C@@H]3O[C@H](CO)[C@H](O)[C@H](O)[C@H]3O)cc2)cc1
- Kd [2]: 5.6 µM
- IC50 [3]: 55.5 µM

Compound: O=c1oc2c(O)c(O)cc3c(=O)oc4c(O)c(O)cc1c4c23 [ELLAGIC ACID]
- MBIC50 [4]: 128 µg/mL
- MBIC90 [4]: >512 µg/mL
- MIC50 [4]: > 512 µg/mL

Compound: OC[C@H]1O[C@H](O[C@H]2O[C@H](CO)[C@@H](O)[C@H](O)[C@H]2O)[C@@H](O)[C@@H](O)[C@@H]1O
- MIC [5]: > 500 µM
- MBIC [6]: >500 µM

Compound: CNC(=O)c1cc(C(=O)NC)cc(-c2ccc(O[C@H]3O[C@H](CO)[C@@H](O)[C@H](O)[C@@H]3O)c(C(F)(F)F)c2)c1
- EC>90 [7]: 8 nM

Compound: CO[C@H]1O[C@H](CO)[C@@H](O)[C@H](O)[C@@H]1O
- Ratio [8]: 1

Compound: O=C(NC[C@]1(O)CO[C@H](CNC(=O)c2ccccc2Cl)[C@H]1O)c1ccccc1
- EC50 [9]: 7.98 µM

Compound: C[C@@H]1O[C@H](CNS(=O)(=O)c2cccs2)[C@@H](O)[C@H](O)[C@@H]1O
- Activity [10]: 80%

Compound: CNC(=O)c1cccc(-c2ccc(O[C@H]3O[C@H](CO)[C@@H](O)[C@H](O)[C@@H]3O)c(C)c2)c1
- EC>90 [7]: 62 nM

Compound: OC[C@H]1O[C@@H](OCc2cn([C@H]3[C@H](O)[C@@H](O)[C@H](n4cc(-c5ccc(-c6cn([C@@H]7O[C@H](CO)[C@@H](n8cc(CO[C@@H]9O[C@H](CO)[C@H](O)[C@H](O)[C@H]9O)nn8)[C@H](O)[C@H]7O)nn6)cc5)nn4)O[C@@H]3CO)nn2)[C@H](O)[C@@H](O)[C@H]1O
- Kd [2]: 0.012 µM

Compound: [N-]=[N+]=N[C@H]1[C@@H](O[C@H]2O[C@H](CO)[C@@H](O)[C@H](O)[C@H]2O)O[C@H](CO)[C@@H](O)[C@@H]1O
- MIC [5]: > 500 µM
- MBIC [6]: 500 µM

Compound: OC[C@H]1O[C@@H](Sc2ccc3ccccc3c2)[C@H](O)[C@@H](O)[C@H]1O
- EC50 [9]: 7.97 µM

Compound: CCCCCCC[C@H](CC(=O)O)OC(=O)C[C@@H](CCCCCCC)O[C@@H]1O[C@@H](C)[C@H](O)[C@@H](O)[C@H]1O[C@@H]1O[C@@H](C)[C@H](O)[C@@H](O)[C@H]1O
- IC50 [11]: 75 µg/mL (≈ 115 µM)

Compound: OC[C@H]1O[C@@H](Oc2ccccc2)[C@H](O)[C@@H](O)[C@H]1O
- IC50 [3]: 13.2 µM

Compound: CCOc1c(Nc2ccc(O[C@H]3O[C@H](CO)[C@@H](O)[C@H](O)[C@@H]3O)cc2)c(=O)c1=O
- Ratio [1]: 1800

Compound: CNC(=O)c1cccc(-c2ccc(O[C@H]3O[C@H](CO)[C@@H](O)[C@H](O)[C@@H]3O)c(C(F)(F)F)c2)c1
- EC>90 [7]: 32 nM

Compound: O=C(N/N=C/c1ccc(Oc2ccc(/C=N/NC(=O)c3ccc(O[C@@H]4O[C@H](CO)[C@H](O)[C@H](O)[C@H]4O)cc3)cc2)cc1)c1ccc(O[C@@H]2O[C@H](CO)[C@H](O)[C@H](O)[C@H]2O)cc1
- Kd [2]: 10.8 µM
- IC50 [3]: 5 µM

Compound: O=C(O)/C=C(\C[C@@H]1O[C@H](CO)[C@H](O)[C@H](O)[C@H]1O)c1ccccc1
- Kd [2]: 37 µM

Compound: C[C@@H]1O[C@H](CNC(=O)/C=C/c2ccccc2)[C@@H](O)[C@H](O)[C@@H]1O
- Kd [12]: 3.09 µM
- IC50 [13]: 2.5 µM
- Kd [14]: 2.59 µM

Compound: O=c1[nH]ccc2ccc(-c3ccc(O[C@H]4O[C@H](CO)[C@@H](O)[C@H](O)[C@@H]4O)cc3)cc12
- EC>90 [7]: 100 nM

Compound: OC[C@H]1O[C@H](O[C@H]2O[C@H](CF)[C@@H](O)[C@H](O)[C@H]2O)[C@H](O)[C@@H](O)[C@@H]1O
- MIC [5]: > 500 µM
- MBIC [6]: 100 µM

Compound: Cc1cc(C)c(S(=O)(=O)NC[C@H]2O[C@@H](C)[C@@H](O)[C@@H](O)[C@@H]2O)c(C)c1
- Kd [12]: 1.27 µM
- IC50 [13]: 0.34 µM
- Kd [14]: 0.31 µM
- Activity [10]: 80%

Compound: CCCCCCC[C@H](CC(=O)N1CCCCC1)OC(=O)C[C@@H](CCCCCCC)O[C@@H]1O[C@@H](C)[C@H](O)[C@@H](O)[C@H]1O[C@@H]1O[C@@H](C)[C@H](O)[C@@H](O)[C@H]1O
- Activity [15]: >90%
- Activity [16]: >80%

Compound: C[C@H]1O[C@H](O[C@H]2O[C@H](CO)[C@@H](O)[C@H](O)[C@H]2O)[C@H](O)[C@@H](O)[C@@H]1O
- MIC [5]: > 500 µM
- MBIC [6]: 100 µM

Compound: O=C(NC[C@]1(O)CO[C@H](CN2C(=O)c3ccccc3C2=O)[C@H]1O)c1ccccc1Cl
- EC50 [17]: 0.26 µM
- EC50 [9]: 1.27 µM

Compound: [N-]=[N+]=NC[C@H]1O[C@H](O[C@H]2O[C@H](CO)[C@@H](O)[C@H](O)[C@H]2O)[C@H](O)[C@@H](O)[C@@H]1O
- MIC [5]: > 500 µM
- MBIC [6]: 50 µM

Compound: O=c1oc2c(O[C@@H]3OC[C@H](O)[C@H](O)[C@H]3O)c(O)cc3c(=O)oc4c(O)c(O)cc1c4c23
- MBIC50 [18]: 512 µg/mL
- MBIC50 [19]: 512 µg/mL

Compound: OC[C@H]1O[C@H](O[C@@H]2C[C@@H](O)[C@H](O)[C@@H](CO)O2)[C@H](O)[C@@H](O)[C@@H]1O
- MIC [5]: > 500 µM
- MBIC [6]: 50 µM

Compound: OC[C@H]1O[C@H](O[C@H]2O[C@H](CO)[C@@H](O)[C@H](O)[C@H]2F)[C@H](O)[C@@H](O)[C@@H]1O
- MIC [5]: > 500 µM
- MBIC [6]: 100 µM

Compound: O=c1oc2c(O[C@@H]3OC[C@@H](O)[C@H](O)[C@H]3O)c(O)cc3c(=O)oc4c(O)c(O)cc1c4c23
- MBIC50 [4]: 64 µg/mL
- MBIC90 [4]: >512 µg/mL
- MIC50 [4]: 32 µg/mL (≈ 73.7 µM)
- MBIC50 [18]: 512 µg/mL
- MBIC50 [19]: 512 µg/mL

Compound: O[C@H]1[C@@H](O)[C@H](C2CO2)O[C@@H](Oc2ccccc2)[C@@H]1O (single isomer, unassigned)
- IC50 [3]: > 3000 µM

Compound: O=C(NC[C@@H]1O[C@H](CNC(=O)c2ccccc2Cl)[C@@H](O)[C@H]1O)c1ccccc1
- EC50 [9]: 3.71 µM

Compound: C[C@@H]1O[C@@H](Oc2c(O)cc3c(=O)oc4c(O)c(O)cc5c(=O)oc2c3c45)[C@H](O)[C@H](O)[C@H]1O
- MBIC50 [4]: 64 µg/mL
- MBIC90 [4]: 128 µg/mL
- MIC50 [4]: > 512 µg/mL

Compound: Cc1cc(-c2ccc3cc[nH]c(=O)c3c2)ccc1O[C@H]1O[C@H](CO)[C@@H](O)[C@H](O)[C@@H]1O
- EC>90 [7]: 31 nM
- IC50 [20]: 0.13 µM

Compound: O=C(NC[C@]1(O)CO[C@H](CN2C(=O)c3ccccc3C2=O)[C@H]1O)c1ccccc1
- EC50 [17]: 5.01 µM
- EC50 [9]: 8.29 µM

Compound: Cc1cc(-c2ccc3ccn(C(=O)Nc4cccnc4)c(=O)c3c2)ccc1O[C@H]1O[C@H](CO)[C@@H](O)[C@H](O)[C@@H]1O
- EC>90 [7]: 62 nM

Compound: CNC(=O)c1cc(C(=O)NC)cc(-c2ccc(O[C@H]3O[C@H](CO)[C@@H](O)[C@H](O)[C@@H]3O)c(C)c2)c1
- EC>90 [7]: 16 nM

Compound: CCCCCCC[C@H](CC(=O)NCc1ccccc1)OC(=O)C[C@@H](CCCCCCC)O[C@@H]1O[C@@H](C)[C@H](O)[C@@H](O)[C@H]1O[C@@H]1O[C@@H](C)[C@H](O)[C@@H](O)[C@H]1O
- Activity [15]: >90%
- Activity [16]: >80%

Compound: O[C@H]1[C@@H](O)[C@@H](C2CO2)O[C@@H](Oc2ccccc2)[C@@H]1O (some centres not stated)
- IC50 [3]: 64 µM

Compound: Cc1cc(=O)oc2ccc(O[C@H]3O[C@H](CO)[C@@H](O)[C@H](O)[C@@H]3O)cc12
- Ratio [8]: 380

Compound: CNC(=O)c1cccc(-c2ccc(O[C@H]3O[C@H](CO)[C@@H](O)[C@H](O)[C@@H]3O)cc2)c1
- EC>90 [7]: 500 nM

Compound: CNC(=O)c1cc(C(=O)NC)cc(-c2ccc(O[C@H]3O[C@H](CO)[C@@H](O)[C@H](O)[C@@H]3O)cc2)c1
- EC>90 [7]: 375 nM

Compound: OC[C@H]1O[C@H](O[C@H]2S[C@H](CO)[C@@H](O)[C@H](O)[C@H]2O)[C@H](O)[C@@H](O)[C@@H]1O
- MIC [5]: > 500 µM
- MBIC [6]: 100 µM
